pIC50: −log10 of the molar value.
Each compound was assayed against MAPKAPK2 (Homo sapiens, UniProt P49137) (assay: MK2 Enzymatic Assay). Details: 0.5 nM MAPKAPK2, 3 μM ATP, 2 μM Ser/Thr4 peptide, 23° C., values given as concentration bins.
Chain of MAPKAPK2 (P49137 whole entry, species assumed): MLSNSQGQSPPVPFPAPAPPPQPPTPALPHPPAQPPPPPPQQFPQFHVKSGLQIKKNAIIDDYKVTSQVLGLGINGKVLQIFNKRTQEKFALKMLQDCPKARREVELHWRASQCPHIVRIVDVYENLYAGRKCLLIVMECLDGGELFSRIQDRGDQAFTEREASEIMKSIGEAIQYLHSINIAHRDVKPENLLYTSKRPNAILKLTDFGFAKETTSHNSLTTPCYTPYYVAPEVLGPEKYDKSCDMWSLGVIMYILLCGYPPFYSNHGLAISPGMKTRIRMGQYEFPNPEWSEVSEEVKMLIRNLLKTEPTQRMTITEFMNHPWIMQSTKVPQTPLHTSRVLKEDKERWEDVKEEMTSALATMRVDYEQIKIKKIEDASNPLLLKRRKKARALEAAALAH
Type: biochemical
Protocol: Briefly, 5 μL of 2× (4 μM) 100% phosphorylation peptide was delivered into the control wells of a 384-well assay plate. 5 μL of 2× (1 nM) MAPKAPK2 and 2× peptide (4 μM) mixture in assay buffer was dispensed to remaining columns of assay plate using Eppendorf electronic multiple channel pipette. The assay plate was incubated for 20 minutes. 5 μL of 2× ATP (6 μM) in assay buffer was dispensed to each well and then the assay plate was lightly centrifuged. The assay plate was incubated for an additional 120 minutes.
5 μL of development reagent A was dispensed to all wells using Eppendorf electronic multiple channel pipette. After incubating the development reaction for 120 min, plates were read on a Perkin Elmer Envision instrument.
Percent phosphorylation was calculated using the following formula:
[formula] Where • C100%=Average Coumarin emission signal of the 100% Phos. Control • C0%=Average Coumarin emission signal of the 0% Phos. Control • F100%=Average Fluorescein emission signal of the 100% Phos. Control • F0%=Average Flurescein emission signal of the 0% Phos. Control
CN[C@@H]1CCN(c2ccc3c(c2)Cn2c(cc(-c4ccc(C#N)cc4)c2Cl)-c2nncn2-3)C1 [Compound 166, (R)-4-(11-chloro-7-(3-(methylamino)pyrrolidin-1-yl)-9H-benzo[e]pyrrolo[1,2-a][1,2,4]tri-azolo[3,4-c][1,4]diazepin-12-yl)benzonitrile] was tested, and the pIC50 was 6.70 to 7.00. Work on Fc1ccc(-c2cc3n(c2)Cc2cc(N4CCC5(CNC5)C4)ccc2-n2cnnc2-3)cc1 [Compound 336, 12-(4-fluorophenyl)-7-(2,6-diazaspiro[3.4]octan-6-yl)-9H-benzo[e]pyrrolo[1,2-a][1,2,4] triazolo[3,4-c][1,4]diazepine] yielded a pIC50 greater than 7.30. N#Cc1ccc(-c2cc3n(c2)Cc2cc(N4C[C@@H](F)[C@@H](N)C4)ccc2-n2cnnc2-3)cc1 (racemic) [Compound 76, 4-(7-(cis-3-amino-4-fluoropyrrolidin-1-yl)-9H-benzo[e]pyrrolo[1,2-a][1,2,4]triazolo[3,4-c][1,4]diazepin-12-yl)benzonitrile] was tested, and the pIC50 was greater than 7.30. With CN(C)C[C@@H]1CN(c2ccc3c(n2)Cn2cc(-c4ccc(F)cc4)cc2-c2nccn2-3)C[C@H]1O [Compound 436, (3S,4R)-4-((dimethylamino)methyl)-1-(12-(4-fluorophenyl)-9H-imidazo[2,1-c]pyrido[3,2-e]pyrrolo[1,2-a][1,4]diazepin-7-yl)pyrrolidin-3-ol] the pIC50 was greater than 7.30. Work on CN(C)C[C@H]1CCN(c2ccc3c(c2)Cn2cc(-c4ccc(F)cc4)cc2-c2ncnn2-3)C1 [Compound 414, (R)-1-(1-(12-(4-fluorophenyl)-9H-benzo[e]pyrrolo[1,2-a][1,2,4]triazolo[5,1-c][1,4]diazepin-7-yl)pyrrolidin-3-yl)-N,N-dimethylmethanamine] yielded a pIC50 of 7.00 to 7.30. CCNC[C@@H]1CCN(c2ccc3c(c2)Cn2cc(-c4ccc(F)cc4)cc2-c2nccn2-3)C1 [Compound 464, (S)—N-((1-(12-(4-fluorophenyl)-9H-benzo[e]imidazo[2,1-c]pyrrolo[1,2-a][1,4]diazepin-7-yl)pyrrolidin-3-yl)methyl)ethanamine] was tested, and the pIC50 was greater than 7.30. CNCC1CN(c2ccc3c(c2)Cn2cc(-c4ccc(C#N)cc4)cc2-c2nncn2-3)C1 [Compound 11, 4-(7-(3-((methylamino)methyl)azetidin-1-yl)-9H-benzo[e]pyrrolo[1,2-a][1,2,4]triazolo[3,4-c][1,4]diazepin-12-yl)benzonitrile] was tested, and the pIC50 was 7.00 to 7.30. With Fc1ccc(-c2cc3n(c2)Cc2cc(N4CC5(CCNC5)C4)ccc2-n2ccnc2-3)cc1 [Compound 378, 12-(4-fluorophenyl)-7-(2,6-diazaspiro[3.4]octan-2-yl)-9H-benzo[e]imidazo[2,1-c]pyrrolo[1,2-a][1,4]diazepine] the pIC50 was greater than 7.30. Compound CN(C)C[C@H]1CN(c2ccc3c(c2)Cn2cc(-c4ccc(F)cc4)cc2-c2ncnn2-3)C[C@@H]1O [Compound 421, (3R,4S)-4-((dimethylamino)methyl)-1-(12-(4-fluorophenyl)-9H-benzo[e]pyrrolo[1,2-a][1,2,4]triazolo[5,1-c][1,4]diazepin-7-yl)pyrrolidin-3-ol] has a pIC50 greater than 7.30. For N#Cc1ccc(-c2cc3n(c2)Cc2nc(N4CCC5(CNC5)C4)ccc2-n2ccnc2-3)cc1 [Compound 310, 4-(7-(2,6-diazaspiro[3.4]octan-6-yl)-9H-imidazo[2,1-c]pyrido[3,2-e]pyrrolo[1,2-a][1,4]diazepin-12-yl)benzonitrile], the pIC50 was greater than 7.30. In the case of CN(C)C1CCN(c2ccc3c(c2)Cn2cc(-c4ccc(F)cc4)cc2-c2ncnn2-3)CC1 [Compound 428, 1-(12-(4-fluorophenyl)-9H-benzo[e]pyrrolo[1,2-a][1,2,4]triazolo[5,1-c][1,4]diazepin-7-yl)-N,N-dimethylpiperidin-4-amine], the pIC50 was 7.00 to 7.30. Cc1nnc2n1-c1ccc(N3CC[C@H](N)C3)cc1Cn1cc(-c3ccc(C#N)cc3)cc1-2 [Compound 230, 4-(7-((S)-3-aminopyrrolidin-1-yl)-3-methyl-9H-benzo[e]pyrrolo[1,2-a][1,2,4]triazolo[3,4-c][1,4]diazepin-12-yl)benzonitrile] gave a pIC50 of 7.00 to 7.30. Fc1ccc(-c2cc3n(c2)Cc2cc(N4CC5(CCNC5)C4)ccc2-n2nnnc2-3)cc1 [Compound 403, 12-(4-fluorophenyl)-7-(2,6-diazaspiro[3.4]octan-2-yl)-9H-benzo[e]pyrrolo[1,2-a]tetrazolo[5,1-c][1,4]diazepine] showed a pIC50 of 7.00 to 7.30. Work on N#Cc1ccc(-c2cc3n(c2)Cc2nc(N4CC[C@@H](CN5CCC(O)CC5)C4)ccc2-n2ccnc2-3)cc1 [Compound 308, (S)-4-(7-(3-((4-hydroxypiperidin-1-yl)methyl)pyrrolidin-1-yl)-9H-imidazo[2,1-c]pyrido[3,2-e]pyrrolo[1,2-a][1,4]diazepin-12-yl)benzonitrile] yielded a pIC50 greater than 7.30. C[C@H]1c2cc(N3C[C@@H](CN(C)C)[C@H](O)C3)ccc2-n2ccnc2-c2cc(-c3ccc(F)cc3)cn21 [Compound 509, (3S,4R)-4-((dimethylamino)methyl)-1-((S)-12-(4-fluorophenyl)-9-methyl-9H-benzo[e]imidazo[2,1-c]pyrrolo[1,2-a][1,4]diazepin-7-yl)pyrrolidin-3-ol] gave a pIC50 greater than 7.30. With CN(C)C[C@H]1CCN(c2ccc3c(c2)Cn2cc(-c4ccc(F)cc4)cc2-c2nccn2-3)C1 [Compound 346, (R)-1-(1-(12-(4-fluorophenyl)-9H-benzo[e]imidazo[2,1-c]pyrrolo[1,2-a][1,4]diazepin-7-yl)pyrrolidin-3-yl)-N,N-dimethylmethanamine] the pIC50 was greater than 7.30. CN1CC2(CCN(c3ccc4c(c3)Cn3cc(-c5ccc(F)cc5)cc3-c3nncn3-4)C2)C1 [Compound 332, 12-(4-fluorophenyl)-7-(2-methyl-2,6-diazaspiro[3.4]octan-6-yl)-9H-benzo[e]pyrrolo[1,2-a] [1,2,4]triazolo[3,4-c][1,4]diazepine] was tested, and the pIC50 was greater than 7.30. CN[C@H]1CCN(c2ccc3c(c2)Cn2cc(-c4ccc(F)cc4F)cc2-c2ncnn2-3)C1 [Compound 451, (S)-1-(12-(2,4-difluorophenyl)-9H-benzo[e]pyrrolo[1,2-a][1,2,4]triazolo[5,1-c][1,4]diazepin-7-yl)-N-methylpyrrolidin-3-amine] showed a pIC50 of 6.70 to 7.00. CN(C)[C@@H]1CCN(c2ccc3c(c2)Cn2cc(-c4ccc(C#N)cc4)cc2-c2ncnn2-3)C1 [Compound 259, (R)-4-(7-(3-(dimethylamino)pyrrolidin-1-yl)-9H-benzo[e]pyrrolo[1,2-a][1,2,4]triazolo[5,1-c][1,4]diazepin-12-yl)benzonitrile] showed a pIC50 greater than 7.30. For CN(C)[C@@H]1CN(c2ccc3c(n2)Cn2cc(-c4ccc(F)cc4)cc2-c2nccn2-3)C[C@@H]1O [Compound 433, (3S,4R)-4-(dimethylamino)-1-(12-(4-fluorophenyl)-9H-imidazo[2,1-c]pyrido[3,2-e]pyrrolo[1,2-a][1,4]diazepin-7-yl)pyrrolidin-3-ol], the pIC50 was 7.00 to 7.30. CN(C)C[C@@H]1CCN(c2ccc3c(c2)Cn2cc(-c4ccc(C#N)cc4)cc2-c2ncnn2-3)C1 [Compound 254, (S)-4-(7-(3-((dimethylamino)methyl)pyrrolidin-1-yl)-9H-benzo[e]pyrrolo[1,2-a][1,2,4]triazolo[5,1-c][1,4]diazepin-12-yl)benzonitrile] gave a pIC50 of 7.00 to 7.30. With CNCC1CN(c2cc3c(cn2)-n2cnnc2-c2cc(-c4ccc(F)cc4)cn2C3)C1 [Compound 330, 1-(1-(12-(4-fluorophenyl)-9H-benzo[e]pyrrolo[1,2-a][1,2,4]triazolo[3,4-c][1,4]diazepin-7-yl)azetidin-3-yl)-N-methylmethanamine] the pIC50 was 7.00 to 7.30. CN(C)C[C@@H]1CN(c2ccc3c(c2)Cn2cc(-c4ccc(F)cc4)cc2-c2ncnn2-3)C[C@@H]1O [Compound 416, (3R,4R)-4-((dimethylamino)methyl)-1-(12-(4-fluorophenyl)-9H-benzo[e]pyrrolo[1,2-a][1,2,4]triazolo[5,1-c][1,4]diazepin-7-yl)pyrrolidin-3-ol] showed a pIC50 greater than 7.30. For OC1CCN(C[C@H]2CCN(c3ccc4c(c3)Cn3cc(-c5ccc(F)cc5)cc3-c3nccn3-4)C2)CC1 [Compound 362, (R)-1-((1-(12-(4-fluorophenyl)-9H-benzo[e]imidazo[2,1-c]pyrrolo[1,2-a][1,4]diazepin-7-yl)pyrrolidin-3-yl)methyl)piperidin-4-ol], the pIC50 was greater than 7.30. With CN(C)C[C@H]1CN(c2ccc3c(c2)Cn2cc(-c4ccc(F)cc4)cc2-c2ncnn2-3)C[C@H]1O [Compound 415, (3S,4S)-4-((dimethylamino)methyl)-1-(12-(4-fluorophenyl)-9H-benzo[e]pyrrolo[1,2-a][1,2,4]triazolo[5,1-c][1,4]diazepin-7-yl)pyrrolidin-3-ol] the pIC50 was 6.70 to 7.00. For CN(C)CCC1CCN(c2ccc3c(c2)Cn2cc(-c4ccc(F)cc4)cc2-c2nccn2-3)C1 (stereo not shown) [Compound 488, 2-(1-(12-(4-fluorophenyl)-9H-benzo[e]imidazo[2,1-c]pyrrolo[1,2-a][1,4]diazepin-7-yl)pyrrolidin-3-yl)-N,N-dimethylethanamine], the pIC50 was greater than 7.30. For CNC[C@@H]1CN(c2ccc3c(c2)Cn2cc(-c4ccc(F)cc4)cc2-c2nccn2-3)C[C@@H]1F [Compound 474, 1-((3R,4R)-4-fluoro-1-(12-(4-fluorophenyl)-9H-benzo[e]imidazo[2,1-c]pyrrolo[1,2-a][1,4]diazepin-7-yl)pyrrolidin-3-yl)-N-methylmethanamine], the pIC50 was greater than 7.30. CN(C)C[C@H]1CN(c2ccc3c(c2)Cn2cc(-c4ccc(C#N)cc4)cc2-c2nccn2-3)C[C@H]1O [Compound 128, 4-(7-((3S,4S)-3-((dimethylamino)methyl)-4-hydroxypyrrolidin-1-yl)-9H-benzo[e]imidazo[2,1-c]pyrrolo[1,2-a][1,4]diazepin-12-yl)benzonitrile] showed a pIC50 of 7.00 to 7.30.

— patent US10562909B2, “Fused quadracyclic compounds, compositions and uses thereof” (Tabomedex Biosciences, LLC, priority 2016, dated 2020)
